Consider 2 molecules from patent publication US20040071799A1, “Herbal compositions and methods for effecting weight loss in humans” (priority 2001, published 2004).

For assay [1] the following is noted: in vivo; cited from earlier work.
Assay [2] in a line: Female Wistar rats fed high fat diet for 56 days (Example 4). The format is in vivo. How it is done: Sixty female Wistar rats, averaging 220 g in weight, were randomly allotted to five experimental groups and fed the high fat diet described in Table I below for 56 days. The rats were housed individually in wire mesh cages equipped with an automated watering system. The room housing the rats was maintained at a temperature of 22° to 24° C., with a light-dark cycle of 12 hours each. Following the one-week quarantine period the rats were adapted to handling, and to oral insertion of the gastric intubation device over the next ten days. Water was intubated once a day during this period. After ten days, the rats no longer indicated marked distress during the procedure.
After adaption to the intubation procedure, the diet of Table I was initiated. This diet is comprised of 56% of energy from fat. All treatment and placebo intubations occurred between 1600 and 1800 hours. Individual food intake was measured daily throughout the study. Body weight was measured daily through day 23 and twice weekly thereafter. The experimental period lasted 56 days. Lin, X., M. R. Chavex, R. C. Bruch, et al., J. Nutrition 128:1606-13, 1998.
Referring to Table II below, the five groups consisted of: the control group (n=15), which were fed ad libitum, and were intubated daily with 1 mL of water. The “low dose DRD” (n=10) and the “high dose DRD” (n=15) groups, which were fed ad libitum and administered daily 1 mL of the aqueous extract obtained from 0.75 grams and 1.50 grams of the initial dried herb mixture by intubation, respectively. The “fenfluramine group” (n=10), which was fed ad libitum and received 2 mg/kg fenfluramine in 1 mL of water daily, by intubation, and, finally, a fifth group (n=10) was pair-fed to the high dose DRD group and was administered 1 mL of water daily, by intubation.
Food consumption for all rats was determined daily, and body weights were obtained daily for the first 23 days, and then twice a week for the next 33 days. After 56 days all the rats except five from the control group and five from the high dose DRD group were sacrificed. Trunk blood was collected, and the eviscerated carcasses were homogenized, dried and assayed for body composition. White and brown fat depots, liver, kidney, spleen, heart, and gastrocnemius muscle were weighed. During the 56 days of the experiment, all rats were observed daily by the animal technician, and weekly by a veterinarian, and notations were made regarding physical activity/lethargy, fur condition, skin condition, eye condition, stools, and “others.” There were no noticeable differences among any of the groups with regard to physical activity, skin condition, and eye condition. […] This behavior lasted about one week and then stopped.
The serum was analyzed for insulin, corticosterone and leptin, using standard commercially available immunoassays for the rat. Alkaline phosphatase, alanine aminotransferase, amylase, aspartate aminotransferase, chloride, cholesterol, creatinine phosphokinase, γ-glutamyl transpeptidase, glucose, hemoglobin, hematocrit, mean cell volume, platelets, potassium, sodium, triglycerides, and white blood cells were assayed by standard clinical laboratory methods. All data were pooled by treatment and subjected to a One-Way Analysis of Variance (ANOVA) followed by a Scheffe Comparison of Means analysis (for unbalanced groups). Statistix® for Windows, 1998. Analytical Software, Tallahassee, Fla. 32317.
The rats that were not sacrificed and had previously received the high dose DRD had their treatment withdrawn during a 14-day “recovery period.” On the 15th day of this recovery period these rats, plus five control rats, were sacrificed and all the above analyses were conducted.

Assay [3] can be described thus: Young growing male Wistar rats fed obesity-inducing diet, 90 days (Example 3). To be noted: fenfluramine group. The format is in vivo. How it is done:
Young growing male Wistar rats, of about 220 grams average initial weight, were fed the obesity-inducing diet. Concomitantly, the rats were administered, 1.0 gram DRD, 1.5 grams DRD, or 5.0 grams DRD, by daily intubation, for 90 days. The treatment groups gained 21%, 24% and 47% less weight, respectively, than did the placebo controls. The rats administered fenfluramine gained 22% less weight than did the controls.
Thus, the prevention of weight gain appears to be due to a reduction in fat storage, and that the skeletal muscle had been preserved.

The mark [4] stands for this setting: d-fenfluramine 2 mg/kg, 56 days.

`CCCCCCCCCCC[C@@H](C[C@@H]1OC(=O)[C@H]1CCCCCC)OC(=O)[C@H](CC(C)C)NC=O` [Orlistat]: the “decrease of the amount of fat absorbed from the diet” value in assay [1] is “diet by 30%”.
As to `CCNC(C)Cc1cccc(C(F)(F)F)c1` (centres unmarked) [fenfluramine], in assay [2] (setting [4]), the “Average Final Weight, Gms ± SD.” value came out at 325.7 ± 33.7 Gms and the “Average Gain, Gms ± SD” value is 106.9 ± 22.0 Gms. For the same molecule, in assay [2] (fenfluramine), the “calories required to cause a one-gram weight gain” value is 18.16 calories and the “food efficiency: gain in weight per calorie available for gain above maintenance” value was 0.0545 grams per calorie. Further, in assay [2] (fenfluramine 2 mg/kg daily, 56th day), the “less weight gained than controls” value is reported as 12.3%. Moreover, in assay [2] (fenfluramine, 56 day period), the total food consumed result is recorded as “consumed less total food over the 56 day period than the controls”. Further, in assay [2] (fenfluramine, 56 days), the “food efficiency lower than controls (grams gain per gram of food ingested)” value is 7.8% and the “weight gained as fat (body composition)” value is recorded as “gained significantly less fat than did the controls”. For the same molecule, in assay [2] (fenfluramine, end of 56-day treatment), the serum leptin entry is listed as “less leptin than controls”. For the same molecule, in assay [3], the “less weight gained than controls” value is given as 22%.
